In US5536850A, “Substance DC114-A1” (Kyowa Hakko Kogyo Co., Ltd., priority 1993, dated 1996):
≈ marks a conversion by molar mass, not a printed value. Like-named read-outs stand apart in the source and are kept apart here.

How the values were obtained:
HeLaS3 cells = experiment: Growth inhibition against HeLaS3 cells; assay type: cell-based; settings: Homo sapiens, HeLa S3, 1 h
Procedure: HeLaS3 cells (ATCC HTB22) were suspended in a medium comprising 10% fetal calf serum, 2 mM glutamine and MEM medium (produced by Nissui Pharmaceutical Co., Ltd.) (hereinafter referred to as medium A) to a concentration of 3×10^4 cells/ml. The cell suspension was put into wells of a 96-well microtiter plate in an amount of 0.1 ml per well. The cells in the plate were cultured at 37° C. for 20 hours in a CO2 -incubator. Subsequently, the test compound appropriately diluted with medium A was added to the wells in an amount of 0.1 ml/well. The cells were further cultured at 37° C. for one hour in the CO2 -incubator, and then the culture supernatant was removed. To the residue was added a medium comprising medium A and 0.02% Neutral Red in an amount of 0.1 ml per well, followed by culturing at 37° C. for one hour in the CO2 -incubator, whereby the cells were stained. After removal of the culture supernatant, the residue was washed once with physiological saline. The pigment was extracted with 0.001 N hydrochloric acid/30% ethanol, and the absorbance at 550 nm was measured by using a microplate reader. The concentration of the test compound at which the growth of the cells is inhibited by 50% (IC50) was calculated by comparing the absorbance of untreated cells with those of the cells treated with the test compound at known concentrations.

[1] = tested on: Salmonella typhi ATCC 9992; experiment: Antibacterial activity, MIC by agar dilution method; assay type: cell-based; settings: Salmonella enterica, pH 7
Procedure: (§1) The antibacterial activity was determined by the agar dilution method using a medium (pH 7) which comprises 3 g/l Bacto-tryptone (produced by Difco Laboratories), 3 g/l meat extract, 1 g/l yeast extract, 1 g/l glucose and 16 g/l agar.

[2] = tested on: Staphylococcus aureus ATCC 6538P; experiment: as above; assay type: cell-based; settings: ATCC6538P, pH 7
Procedure: as §1

[3] = tested on: Candida albicans ATCC 10231; experiment: as above; assay type: cell-based
Procedure: as §1

Escherichia coli ATCC 26 = experiment: as above; assay type: cell-based; settings: ATCC26, pH 7
Procedure: as §1

[4] = tested on: Enterococcus faecium ATCC 10541; experiment: as above; assay type: cell-based
Procedure: as §1

[5] = tested on: Shigella sonnei ATCC 9290; experiment: as above; assay type: cell-based; settings: ATCC9290, pH 7
Procedure: as §1

[6] = tested on: Bacillus subtilis No. 10707; experiment: as above; assay type: cell-based
Procedure: as §1

[7] = tested on: Proteus vulgaris ATCC 6897; experiment: as above; assay type: cell-based
Procedure: as §1

[8] = tested on: Klebsiella pneumoniae ATCC 10031; experiment: as above; assay type: cell-based
Procedure: as §1

[9] = tested on: Pseudomonas aeruginosa Bin H No. 1; experiment: as above; assay type: cell-based; settings: pH 7
Procedure: as §1

Solubility = assay type: physicochemical

Cc1cc2c(O)c3c(cc2c2oc(C4(C)OC4C4CO4)cc(=O)c12)C(=O)C1OC1(C1CC(=O)C(O)C(C)O1)C3=O (centres unmarked) [DC114-A1]
IC50 (HeLaS3 cells): 12 nM | MIC [1]: 5.21 µg/mL (≈ 9.5 µM) | MIC ([2]; Staphylococcus aureus): 0.04 µg/mL (≈ 0.0729 µM) | MIC ([3]; Candida albicans, ATCC10231, pH 7): 5.21 µg/mL (≈ 9.5 µM) | MIC (Escherichia coli ATCC 26): 5.21 µg/mL (≈ 9.5 µM) | MIC ([4]; Enterococcus faecium, ATCC10541, pH 7): 0.16 µg/mL (≈ 0.292 µM) | MIC [5]: 5.21 µg/mL (≈ 9.5 µM) | MIC ([6]; Bacillus subtilis, NO.10707, pH 7): 0.33 µg/mL (≈ 0.602 µM) | MIC ([7]; Proteus vulgaris, ATCC6897, pH 7): 2.6 µg/mL (≈ 4.74 µM) | MIC ([8]; Klebsiella pneumoniae, ATCC10031, pH 7): 5.21 µg/mL (≈ 9.5 µM) | MIC ([9]; Pseudomonas aeruginosa): 5.21 µg/mL (≈ 9.5 µM) | Solubility (Solubility; acetone): Soluble | Solubility (Solubility; chloroform): sparingly soluble | Solubility (Solubility; dimethylsulfoxide (DMSO)): Soluble | Solubility (Solubility; ethyl acetate): sparingly soluble | Solubility (Solubility; methanol): Soluble | Solubility (Solubility; n-hexane): sparingly soluble | Solubility (Solubility; water): sparingly soluble

Cc1cc2c(O)c3c(cc2c2oc(C4(C)OC4C4CO4)cc(=O)c12)C(=O)C1OC1(C1CC(=O)C(O)C(C)O1)C3O (centres unmarked) [DC114-C, reference compound]
IC50 (HeLaS3 cells; HeLaS3 cells, one hour with compound, 37° C., Neutral Red, absorbance at 550 nm, read-out: IC50): 21 nM | MIC [1]: 20.8 µg/mL (≈ 37.8 µM) | MIC ([2]; Staphylococcus aureus ATCC 6538P, agar dilution, read-out: MIC): 0.16 µg/mL (≈ 0.291 µM) | MIC ([3]; ATCC10231, Candida albicans ATCC 10231, agar dilution, pH 7, read-out: MIC): > 83.3 µg/mL | MIC (Escherichia coli ATCC 26): 20.8 µg/mL (≈ 37.8 µM) | MIC ([4]; ATCC10541, Enterococcus faecium ATCC 10541, agar dilution, pH 7, read-out: MIC): 0.16 µg/mL (≈ 0.291 µM) | MIC [5]: 20.8 µg/mL (≈ 37.8 µM) | MIC ([6]; Bacillus subtilis No. 10707, agar dilution, pH 7, read-out: MIC): 0.33 µg/mL (≈ 0.599 µM) | MIC ([7]; ATCC6897, Proteus vulgaris ATCC 6897, agar dilution, pH 7, read-out: MIC): 5.21 µg/mL (≈ 9.46 µM) | MIC ([8]; ATCC10031, Klebsiella pneumoniae ATCC 10031, agar dilution, pH 7, read-out: MIC): 5.21 µg/mL (≈ 9.46 µM) | MIC ([9]; Pseudomonas aeruginosa Bin H No. 1, agar dilution, read-out: MIC): 41.7 µg/mL (≈ 75.7 µM)
